Reference: patent US9409905B2, “Antibacterial compounds and methods for use” (PTC THERAPEUTICS, INC., priority 2011, dated 2016)
≈ marks a conversion by molar mass, not a printed value.

How the values were obtained:
[1] = test system: Staphylococcus aureus (S. aureus) 29213; experiment: Antibacterial activity, microbroth dilution MIC (Table 1); format: cell-based; conditions: microbroth dilution, Gram-positive S. aureus 29213, read-out: MIC, 29213
Excerpt: (§1) The antibacterial activity from a microbroth dilution method may be presented as the minimum inhibitory concentration (MIC in μg/mL). The MIC value is the lowest concentration of drug which prevents macroscopically visible growth under test conditions.
(§2) Antibacterial activity of test compounds against the super sensitive Gram-negative Escherichia coli (E. coli) BAS849 bacterium, the control Gram-negative E. coli 25922 strain and the Gram-positive Staphylococcus aureus (S. aureus) 29213 bacterium are shown in Table 1.

[2] = test system: Escherichia coli (E. coli) BAS849; experiment: as above; format: cell-based; conditions: microbroth dilution, super sensitive Gram-negative E. coli BAS849, read-out: MIC, BAS849
Excerpt: as §1, §2

E. coli LZ3111 = experiment: Antibacterial activity, MIC, quinolone resistant strain (Table 2); format: cell-based; conditions: Escherichia coli, LZ3111, read-out: MIC LZ3111
Excerpt: as §1
Mutations in these regions are known to confer a high level resistance to the quinolone class of antibiotics.

E. coli 25922 = experiment: Antibacterial activity, microbroth dilution MIC (Table 1); format: cell-based, Escherichia coli; conditions: Escherichia coli; microbroth dilution; control Gram-negative E. coli 25922 strain; read-out: MIC, 25922
Excerpt: as §1, §2

Compound | MIC [1] [µg/mL] | MIC [2] [µg/mL] | MIC (E. coli LZ3111) [µg/mL] | MIC (E. coli 25922) [µg/mL]
CCc1cc(C(=O)O)c(=O)[nH]c1-c1ccc2c(c1)cc([C@H]1CCCN1)n2C.Cl [Cpd 67, (R)-5-ethyl-6-(1-methyl-2-(pyrrolidin-2-yl)-1H-indol-5-yl)-2-oxo-1,2-dihydropyridine-3-carboxylic acid hydrochloride] | 12.5 to 150 | < 1 | 12.5 to 150 | 1 to 3.5
CCc1cc(C(=O)O)c(=O)[nH]c1-c1ccc2c(c1)cc([C@H]1CCCN1C)n2C [Cpd 68, (R)-5-ethyl-6-(1-methyl-2-(1-methylpyrrolidin-2-yl)-1H-indol-5-yl)-2-oxo-1,2-dihydropyridine-3-carboxylic acid] | 12.5 to 150 (≈ 32.9 to 395 µM) | < 1 | 12.5 to 150 (≈ 32.9 to 395 µM) | 1 to 3.5 (≈ 2.64 to 9.22 µM)
CCc1cc(C(=O)O)c(=O)[nH]c1-c1ccc2c(c1)cc([C@@H]1CCCN1)n2C.Cl [Cpd 69, (S)-5-ethyl-6-(1-methyl-2-(pyrrolidin-2-yl)-1H-indol-5-yl)-2-oxo-1,2-dihydropyridine-3-carboxylic acid hydrochloride] | 12.5 to 150 | < 1 | 12.5 to 150 | 1 to 3.5
CCc1cc(C(=O)O)c(=O)[nH]c1-c1ccc2c(c1)cc(C1CNCCN1)n2C.Cl.Cl (stereo not shown) [Cpd 70, 5-ethyl-6-(1-methyl-2-(piperazin-2-yl)-1H-indol-5-yl)-2-oxo-1,2-dihydropyridine-3-carboxylic acid dihydrochloride] | 12.5 to 150 | 3.5 to 12.5 | 12.5 to 150 | 12.5 to 150
CCc1cc(C(=O)O)c(=O)[nH]c1-c1ccc2c(c1)cc(C1CNCCN1C)n2C.Cl.Cl (stereo not shown) [Cpd 71, 5-ethyl-6-(1-methyl-2-(1-methylpiperazin-2-yl)-1H-indol-5-yl)-2-oxo-1,2-dihydropyridine-3-carboxylic acid dihydrochloride] | 12.5 to 150 | 3.5 to 12.5 | 12.5 to 150 | 12.5 to 150
CCc1cc(C(=O)O)c(=O)[nH]c1-c1ccc2c(c1)c(C#N)cn2C [Cpd 72, 6-(3-cyano-1-methyl-1H-indol-5-yl)-5-ethyl-2-oxo-1,2-dihydropyridine-3-carboxylic acid] | 12.5 to 150 (≈ 38.9 to 467 µM) | 3.5 to 12.5 (≈ 10.9 to 38.9 µM) | 12.5 to 150 (≈ 38.9 to 467 µM) | 12.5 to 150 (≈ 38.9 to 467 µM)
CCc1cc(C(=O)O)c(=O)[nH]c1-c1ccc2c(c1)c(C(N)=O)cn2C [Cpd 73, 6-(3-carbamoyl-1-methyl-1H-indol-5-yl)-5-ethyl-2-oxo-1,2-dihydropyridine-3-carboxylic acid] | 12.5 to 150 (≈ 36.8 to 442 µM) | 12.5 to 150 (≈ 36.8 to 442 µM) | 12.5 to 150 (≈ 36.8 to 442 µM) | 12.5 to 150 (≈ 36.8 to 442 µM)
CCc1cc(C(=O)O)c(=O)[nH]c1-c1ccc2c(c1)c(CN)cn2C [Cpd 74, 6-(3-(aminomethyl)-1-methyl-1H-indol-5-yl)-5-ethyl-2-oxo-1,2-dihydropyridine-3-carboxylic acid] | 12.5 to 150 (≈ 38.4 to 461 µM) | 12.5 to 150 (≈ 38.4 to 461 µM) | 12.5 to 150 (≈ 38.4 to 461 µM) | 12.5 to 150 (≈ 38.4 to 461 µM)
CCc1cc(C(=O)O)c(=O)[nH]c1-c1ccc2c(c1)c(CN(C)C)cn2C [Cpd 75, 6-(3-((dimethylamino)methyl)-1-methyl-1H-indol-5-yl)-5-ethyl-2-oxo-1,2-dihydropyridine-3-carboxylic acid] | 12.5 to 150 (≈ 35.4 to 424 µM) | 12.5 to 150 (≈ 35.4 to 424 µM) | 12.5 to 150 (≈ 35.4 to 424 µM) | 12.5 to 150 (≈ 35.4 to 424 µM)
CCc1cc(C(=O)O)c(=O)[nH]c1-c1ccc2c(c1)c(CN(CC)CC)cn2C [Cpd 76, 6-(3-((diethylamino)methyl)-1-methyl-1H-indol-5-yl)-5-ethyl-2-oxo-1,2-dihydropyridine-3-carboxylic acid] | 12.5 to 150 (≈ 32.8 to 393 µM) | 12.5 to 150 (≈ 32.8 to 393 µM) | 12.5 to 150 (≈ 32.8 to 393 µM) | 12.5 to 150 (≈ 32.8 to 393 µM)
CCc1cc(C(=O)O)c(=O)[nH]c1-c1ccc2c(c1)c(CN(Cc1ccccc1)Cc1ccccc1)cn2C [Cpd 77, 6-(3-((dibenzylamino)methyl)-1-methyl-1H-indol-5-yl)-5-ethyl-2-oxo-1,2-dihydropyridine-3-carboxylic acid] | 3.5 to 12.5 (≈ 6.92 to 24.7 µM) | 3.5 to 12.5 (≈ 6.92 to 24.7 µM) | 12.5 to 150 (≈ 24.7 to 297 µM) | 12.5 to 150 (≈ 24.7 to 297 µM)
CCc1cc(C(=O)O)c(=O)[nH]c1-c1ccc2c(cc(CN3CCCC3)n2C)n1 [Cpd 84, 5-ethyl-6-(1-methyl-2-(pyrrolidin-1-ylmethyl)-1H-pyrrolo[3,2-b]pyridin-5-yl)-2-oxo-1,2-dihydropyridine-3-carboxylic acid] | 12.5 to 150 (≈ 32.9 to 394 µM) | 1 to 3.5 (≈ 2.63 to 9.2 µM) | 12.5 to 150 (≈ 32.9 to 394 µM) | 3.5 to 12.5 (≈ 9.2 to 32.9 µM)
CCc1cc(C(=O)O)c(=O)[nH]c1-c1ccc2c(c1)cc(C1=NCCN1)n2C [Cpd 85, 6-(2-(4,5-dihydro-1H-imidazol-2-yl)-1-methyl-1H-indol-5-yl)-5-ethyl-2-oxo-1,2-dihydropyridine-3-carboxylic acid] | 12.5 to 150 (≈ 34.3 to 412 µM) | 1 to 3.5 (≈ 2.74 to 9.6 µM) | 12.5 to 150 (≈ 34.3 to 412 µM) | 12.5 to 150 (≈ 34.3 to 412 µM)
